The structures appear in SMILES notation. pIC50: −log10 of the molar value.

This experiment addresses T1, human TLR8 (Homo sapiens, UniProt Q9NR97).
T1 sequence (Q9NR97 27-1041): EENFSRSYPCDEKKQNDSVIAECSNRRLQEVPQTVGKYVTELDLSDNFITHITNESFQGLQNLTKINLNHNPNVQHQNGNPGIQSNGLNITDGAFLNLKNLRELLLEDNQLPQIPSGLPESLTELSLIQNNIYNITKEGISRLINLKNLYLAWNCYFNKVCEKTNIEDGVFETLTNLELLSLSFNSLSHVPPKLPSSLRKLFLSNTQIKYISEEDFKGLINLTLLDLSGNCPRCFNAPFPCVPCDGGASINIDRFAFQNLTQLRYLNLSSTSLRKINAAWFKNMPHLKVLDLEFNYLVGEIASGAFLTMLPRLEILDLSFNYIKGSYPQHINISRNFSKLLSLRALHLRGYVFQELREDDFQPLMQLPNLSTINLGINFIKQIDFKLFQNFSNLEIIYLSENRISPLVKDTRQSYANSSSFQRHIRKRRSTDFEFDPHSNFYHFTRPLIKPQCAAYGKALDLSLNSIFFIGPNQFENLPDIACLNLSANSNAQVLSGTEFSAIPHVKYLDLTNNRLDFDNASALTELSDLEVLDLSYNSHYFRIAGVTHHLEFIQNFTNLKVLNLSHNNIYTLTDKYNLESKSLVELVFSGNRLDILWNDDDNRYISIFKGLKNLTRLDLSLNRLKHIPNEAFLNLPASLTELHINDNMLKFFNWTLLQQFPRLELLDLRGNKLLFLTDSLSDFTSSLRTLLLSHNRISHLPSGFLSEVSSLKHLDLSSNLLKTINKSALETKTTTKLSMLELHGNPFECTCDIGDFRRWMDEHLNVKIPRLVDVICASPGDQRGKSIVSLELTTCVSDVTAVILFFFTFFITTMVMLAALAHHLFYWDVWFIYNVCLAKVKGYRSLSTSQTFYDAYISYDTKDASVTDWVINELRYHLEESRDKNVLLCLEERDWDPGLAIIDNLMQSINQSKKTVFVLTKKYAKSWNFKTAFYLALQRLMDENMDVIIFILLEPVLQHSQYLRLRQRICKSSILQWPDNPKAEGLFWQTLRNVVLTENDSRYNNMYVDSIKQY
Nature of the experiment: HEK293-Blue-hTLR-8 cells assay (SEAP reporter, R848 stimulation). Type of experiment: cell-based. Particulars: HEK293-Blue-hTLR8 cells, R848 ligand, 20 hrs; read-out: HEK/hTLR8 IC50. How it is done: The following tests were carried out in order to determine the activity of the compounds of formula (I), (Ia) or (Ib) in HEK293-Blue-hTLR-7/8/9 cells assay.
HEK293-Blue-hTLR-8 Cells Assay:
A stable HEK293-Blue-hTLR-8 cell line was purchased from InvivoGen (Cat. #: hkb-htlr8, San Diego, California, USA). These cells were originally designed for studying the stimulation of human TLR8 by monitoring the activation of NF-κB. A SEAP (secreted embryonic alkaline phosphatase) reporter gene was placed under the control of the IFN-β minimal promoter fused to five NF-κB and AP-1-binding sites. The SEAP was induced by activating NF-κB and AP-1 via stimulating HEK-Blue hTLR8 cells with TLR8 ligands. Therefore the reporter expression was declined by TLR8 antagonist under the stimulation of a ligand, such as R848, for incubation of 20 hrs. The cell culture supernatant SEAP reporter activity was determined using QUANTI-Blue™ kit (Cat. #: rep-qb1, Invivogen, San Diego, Ca., USA) at a wavelength of 640 nm, a detection medium that turns purple or blue in the presence of alkaline phosphatase.
HEK293-Blue-hTLR8 cells were incubated at a density of 250,000˜450,000 cells/mL in a volume of 170 μL in a 96-well plate in Dulbecco's Modified Eagle's medium (DMEM) containing 4.5 g/L glucose, 50 U/mL penicillin, […], […], 2 mM L-glutamine, 10% (v/v) heat-inactivated fetal bovine serum with addition of 20 μL test compound in a serial dilution in the presence of final DMSO at 1% and 10 μL of 60 uM R848 in above DMEM, perform incubation under 37° C. in a CO2 incubator for 20 hrs. Then 20 μL of the supernatant from each well was incubated with 180 μL Quanti-blue substrate solution at 37° C. for 2 hrs and the absorbance was read at 620-655 nm using a spectrophotometer. The signaling pathway that TLR8 activation leads to downstream NF-κB activation has been widely accepted, and therefore similar reporter assay was modified for evaluating TLR8 antagonist.
In the case of `C[C@@H]1CN(c2ccc(C#N)c3ncccc23)C[C@@H]2CCN(Cc3cc4c(cn3)CCNC4)CCN21` [Example 9, 5-[(4R,10aS)-4-methyl-8-(5,6,7,8-tetrahydro-2,6-naphthyridin-3-ylmethyl)-1,3,4,6,7,9,10,10a-octahydropyrazino[1,2-d][1,4]diazepin-2-yl]quinoline-8-carbonitrile], the pIC50 is 8.19.

For `C[C@@H]1CN(c2ccc(C#N)c3ncccc23)C[C@@H]2CCN(Cc3ccc(N4CCOC[C@H](N)C4)cn3)CCN21` [Example 21, 5-[(4R,10aS)-8-[[5-[(6R)-6-amino-1,4-oxazepan-4-yl]-2-pyridyl]methyl]-4-methyl-1,3,4,6,7,9,10,10a-octahydropyrazino[1,2-d][1,4]diazepin-2-yl]quinoline-8-carbonitrile], the pIC50 was 7.06.

As for `C[C@@H]1CN(c2ccc(C#N)c3ncccc23)C[C@@H]2CCN(Cc3ccc(N4CCNCC4)nc3)CCN21` [Example 17, 5-[(4R,10aS)-4-methyl-8-[(6-piperazin-1-yl-3-pyridyl)methyl]-1,3,4,6,7,9,10,10a-octahydropyrazino[1,2-d][1,4]diazepin-2-yl]quinoline-8-carbonitrile], the pIC50 was 8.47.

In the case of `C[C@@H]1CN(c2ccc(C#N)c3ncccc23)C[C@@H]2CCN(c3cnc(N4CCNCC4)nc3)CCN21` [Example 2, 5-[(4R,10aS)-4-methyl-8-(2-piperazin-1-ylpyrimidin-5-yl)-1,3,4,6,7,9,10,10a-octahydropyrazino[1,2-d][1,4]diazepin-2-yl]quinoline-8-carbonitrile], the pIC50 was 7.60.

For `C[C@@H]1CN(c2ccc(C#N)c3ncccc23)C[C@@H]2CCN(c3cc4c(cn3)CNCC4)CCN21` [Example 7, 5-[(4R,10aS)-4-methyl-8-(5,6,7,8-tetrahydro-2,7-naphthyridin-3-yl)-1,3,4,6,7,9,10,10a-octahydropyrazino[1,2-d][1,4]diazepin-2-yl]quinoline-8-carbonitrile], the pIC50 was 8.82.

For `C[C@@H]1CN(c2ccc(C#N)c3ncccc23)C[C@@H]2CCN(Cc3ncc(N4CCNCC4)cc3F)CCN21` [Example 23, 5-[(4R,10aS)-8-[(3-fluoro-5-piperazin-1-yl-2-pyridyl)methyl]-4-methyl-1,3,4,6,7,9,10,10a-octahydropyrazino[1,2-d][1,4]diazepin-2-yl]quinoline-8-carbonitrile], the pIC50 is 8.08.

Turning to `C[C@@H]1CN(c2ccc(C#N)c3ncccc23)C[C@@H]2CCN(c3ccc(N4CCNCC4)nc3)CCN21` [Example 1, 5-[(4R,10aS)-4-methyl-8-(6-piperazin-1-yl-3-pyridyl)-1,3,4,6,7,9,10,10a-octahydropyrazino [1,2-d][1,4]diazepin-2-yl]quinoline-8-carbonitrile], the pIC50 was 7.21.

For `C[C@@H]1CN(c2ccc(C#N)c3ncccc23)C[C@@H]2CCN(Cc3cccc(N4CCNCC4)n3)CCN21` [Example 18, 5-[(4R,10aS)-4-methyl-8-[(6-piperazin-1-yl-2-pyridyl)methyl]-1,3,4,6,7,9,10,10a-octahydropyrazino[1,2-d][1,4]diazepin-2-yl]quinoline-8-carbonitrile], the pIC50 was 8.09.

With `C[C@@H]1CN(c2ccc(C#N)c3ncccc23)C[C@@H]2CCN(Cc3cc4c(cn3)CNCC4)CCN21` [Example 8, 5-[(4R,10aS)-4-methyl-8-(5,6,7,8-tetrahydro-2,7-naphthyridin-3-ylmethyl)-1,3,4,6,7,9,10,10a-octahydropyrazino[1,2-d][1,4]diazepin-2-yl]quinoline-8-carbonitrile], the pIC50 was 8.07.

As to `CO[C@@H]1CN(c2cnc(CN3CC[C@H]4CN(c5ccc(C#N)n6nccc56)C[C@@H](C)N4CC3)c(F)c2)C[C@H]1N` [Example 26, 4-[(4R,10aS)-8-[[5-[(3R,4R)-3-amino-4-methoxy-pyrrolidin-1-yl]-3-fluoro-2-pyridyl]methyl]-4-methyl-1,3,4,6,7,9,10,10a-octahydropyrazino[1,2-d][1,4]diazepin-2-yl]pyrazolo[1,5-a]pyridine-7-carbonitrile], the pIC50 is 7.07.

Values taken from patent US12421240B2, “Hydropyrazino[1,2-d][1,4]diazepine compounds for the treatment of autoimmune disease” (Hoffmann-La Roche Inc., priority 2019, dated 2025).
